Here are results for one compound from ChEMBL document CHEMBL5303764, “Data for DCP probe BI-3812” (2023).

Experiment [1] concerns the target B-cell lymphoma 6 protein (Homo sapiens, UniProt P41182). The experiment is described as follows: BCL6::NCOR LUMIER in cells.
The target in experiment [2] is 5-hydroxytryptamine receptor 1B (Homo sapiens) (UniProt P28222). In words: 5HT1B(H) Eurofins SafetyScreen44 (BI). Particulars: filed as antagonist, Compound concentration 10.0 uM.
Experiment [3] concerns the target Adenosine receptor A2a (Homo sapiens) (UniProt P29274). The experiment is described as follows: A2A/H Eurofins SafetyScreen44 (BI). Particulars: filed as antagonist, Compound concentration 10.0 uM.
Experiment [4] deals with D(1A) dopamine receptor (Homo sapiens) (UniProt P21728). In words: D1/H Eurofins SafetyScreen44 (BI). Particulars: filed as antagonist, Compound concentration 10.0 uM.
Experiment [5] addresses T1, Muscarinic acetylcholine receptor M3 (Homo sapiens, UniProt P20309). In words: M3/H Eurofins SafetyScreen44 (BI). Particulars: Compound concentration 10.0 uM.
Experiment [6] addresses RAC-beta serine/threonine-protein kinase (Homo sapiens) (UniProt P31751). The experiment is described as follows: AKT2 Invitrogen Lab (UK) kinase screen (BI). Particulars: Compound concentration 1.0 uM.
Experiment [7] has as its target Glycogen synthase kinase-3 beta (Homo sapiens) (UniProt P49841). The experiment is described as follows: GSK3B Invitrogen Lab (UK) kinase screen (BI). Particulars: Compound concentration 1.0 uM.
For experiment [8], the target named is Tyrosine-protein kinase Lyn (Homo sapiens) (UniProt P07948). The experiment is described as follows: LYN A Invitrogen Lab (UK) kinase screen (BI). Particulars: Compound concentration 1.0 uM.
The target in experiment [9] is Dual specificity mitogen-activated protein kinase kinase 6 (Homo sapiens) (UniProt P52564). The experiment is described as follows: MAP2K6 Invitrogen Lab (UK) kinase screen (BI). Particulars: Compound concentration 1.0 uM.
In experiment [10] the target is High affinity nerve growth factor receptor (Homo sapiens) (UniProt P04629). The experiment is described as follows: NTRK1 Invitrogen Lab (UK) kinase screen (BI). Particulars: Compound concentration 1.0 uM.
The target of experiment [11] is Protein kinase C alpha type (Homo sapiens) (UniProt P17252). The experiment is described as follows: PRKCA Invitrogen Lab (UK) kinase screen (BI). Particulars: Compound concentration 1.0 uM.
For experiment [12], the target named is 5-hydroxytryptamine receptor 1D (Homo sapiens) (UniProt P28221). Particulars: Compound concentration 10.0 uM.
Sequence of 5-hydroxytryptamine receptor 1D (Homo sapiens) (P28221 whole entry): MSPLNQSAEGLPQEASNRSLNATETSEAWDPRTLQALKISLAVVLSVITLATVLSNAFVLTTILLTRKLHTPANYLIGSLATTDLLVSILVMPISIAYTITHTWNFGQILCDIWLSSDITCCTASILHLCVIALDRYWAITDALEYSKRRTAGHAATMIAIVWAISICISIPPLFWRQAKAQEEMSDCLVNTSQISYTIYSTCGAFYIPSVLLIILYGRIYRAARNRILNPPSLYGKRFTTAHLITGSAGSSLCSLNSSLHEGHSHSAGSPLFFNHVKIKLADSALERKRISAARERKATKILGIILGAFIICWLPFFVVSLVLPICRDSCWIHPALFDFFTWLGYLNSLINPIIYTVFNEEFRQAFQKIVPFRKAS
Experiment [13] addresses 5-hydroxytryptamine receptor 2C (Homo sapiens) (UniProt P28335). Particulars: Compound concentration 10.0 uM.
Experiment [14] has as its target 5-hydroxytryptamine receptor 7 (Homo sapiens) (UniProt P34969). Particulars: Compound concentration 10.0 uM.
Experiment [15] concerns the target D(4) dopamine receptor (Homo sapiens) (UniProt P21917). Particulars: Compound concentration 10.0 uM.
Experiment [16] deals with Sodium-dependent serotonin transporter (Homo sapiens) (UniProt P31645). Particulars: Compound concentration 10.0 uM.
Sequence of Sodium-dependent serotonin transporter (Homo sapiens) (P31645 whole entry, looked up): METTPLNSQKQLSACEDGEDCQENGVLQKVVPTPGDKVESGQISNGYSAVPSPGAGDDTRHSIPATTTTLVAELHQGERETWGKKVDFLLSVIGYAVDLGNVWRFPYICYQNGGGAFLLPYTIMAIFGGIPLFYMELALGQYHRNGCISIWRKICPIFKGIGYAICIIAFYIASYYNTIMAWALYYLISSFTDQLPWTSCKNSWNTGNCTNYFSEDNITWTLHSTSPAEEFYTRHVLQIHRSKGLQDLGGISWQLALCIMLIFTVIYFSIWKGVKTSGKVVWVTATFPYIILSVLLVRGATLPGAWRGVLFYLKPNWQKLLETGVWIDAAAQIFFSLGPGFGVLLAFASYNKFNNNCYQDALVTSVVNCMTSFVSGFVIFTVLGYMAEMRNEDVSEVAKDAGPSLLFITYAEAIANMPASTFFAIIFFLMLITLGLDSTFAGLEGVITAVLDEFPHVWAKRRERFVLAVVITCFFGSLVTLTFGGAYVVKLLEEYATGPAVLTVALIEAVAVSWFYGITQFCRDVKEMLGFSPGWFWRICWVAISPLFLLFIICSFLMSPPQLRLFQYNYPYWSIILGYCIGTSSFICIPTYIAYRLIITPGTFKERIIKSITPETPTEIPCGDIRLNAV
The target in experiment [17] is Sodium-dependent dopamine transporter (Homo sapiens) (UniProt Q01959). Particulars: Compound concentration 10.0 uM.
Sequence of Sodium-dependent dopamine transporter (Homo sapiens) (Q01959 whole entry): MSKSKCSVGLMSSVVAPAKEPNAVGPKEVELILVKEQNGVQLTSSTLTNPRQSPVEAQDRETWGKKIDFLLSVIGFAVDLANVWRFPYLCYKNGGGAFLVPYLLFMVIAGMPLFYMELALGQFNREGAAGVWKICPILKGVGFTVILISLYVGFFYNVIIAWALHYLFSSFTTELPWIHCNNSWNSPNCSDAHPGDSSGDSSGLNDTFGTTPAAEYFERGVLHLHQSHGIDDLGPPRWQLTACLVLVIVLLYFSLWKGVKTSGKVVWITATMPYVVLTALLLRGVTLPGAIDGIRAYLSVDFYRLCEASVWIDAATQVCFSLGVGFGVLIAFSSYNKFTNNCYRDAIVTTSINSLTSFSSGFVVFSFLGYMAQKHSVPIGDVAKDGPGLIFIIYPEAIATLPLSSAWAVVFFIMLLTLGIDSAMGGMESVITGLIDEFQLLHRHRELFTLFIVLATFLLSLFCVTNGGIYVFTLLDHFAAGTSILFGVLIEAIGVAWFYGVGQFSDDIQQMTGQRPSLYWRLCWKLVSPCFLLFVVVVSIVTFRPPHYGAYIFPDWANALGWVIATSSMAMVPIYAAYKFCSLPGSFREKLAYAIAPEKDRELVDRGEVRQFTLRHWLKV
In experiment [18] the target is Histamine H4 receptor (Homo sapiens) (UniProt Q9H3N8). Particulars: Compound concentration 10.0 uM.
Sequence of Histamine H4 receptor (Homo sapiens) (Q9H3N8 whole entry): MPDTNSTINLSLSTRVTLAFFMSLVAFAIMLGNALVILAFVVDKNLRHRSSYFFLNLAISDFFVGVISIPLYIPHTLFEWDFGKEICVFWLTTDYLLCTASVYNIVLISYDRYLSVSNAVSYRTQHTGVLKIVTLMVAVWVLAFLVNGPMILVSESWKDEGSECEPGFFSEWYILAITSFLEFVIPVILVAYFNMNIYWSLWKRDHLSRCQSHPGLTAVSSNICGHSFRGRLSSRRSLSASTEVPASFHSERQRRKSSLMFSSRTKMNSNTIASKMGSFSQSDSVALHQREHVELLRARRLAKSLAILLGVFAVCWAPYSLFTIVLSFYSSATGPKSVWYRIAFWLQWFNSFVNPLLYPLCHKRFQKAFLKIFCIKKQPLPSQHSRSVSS
Experiment [19] deals with T1, Muscarinic acetylcholine receptor M3. Particulars: Compound concentration 10.0 uM.

Activity calls are given as the source filed them. The rule behind the calls is not given here.

T1 sequence (P20309 whole entry, looked up): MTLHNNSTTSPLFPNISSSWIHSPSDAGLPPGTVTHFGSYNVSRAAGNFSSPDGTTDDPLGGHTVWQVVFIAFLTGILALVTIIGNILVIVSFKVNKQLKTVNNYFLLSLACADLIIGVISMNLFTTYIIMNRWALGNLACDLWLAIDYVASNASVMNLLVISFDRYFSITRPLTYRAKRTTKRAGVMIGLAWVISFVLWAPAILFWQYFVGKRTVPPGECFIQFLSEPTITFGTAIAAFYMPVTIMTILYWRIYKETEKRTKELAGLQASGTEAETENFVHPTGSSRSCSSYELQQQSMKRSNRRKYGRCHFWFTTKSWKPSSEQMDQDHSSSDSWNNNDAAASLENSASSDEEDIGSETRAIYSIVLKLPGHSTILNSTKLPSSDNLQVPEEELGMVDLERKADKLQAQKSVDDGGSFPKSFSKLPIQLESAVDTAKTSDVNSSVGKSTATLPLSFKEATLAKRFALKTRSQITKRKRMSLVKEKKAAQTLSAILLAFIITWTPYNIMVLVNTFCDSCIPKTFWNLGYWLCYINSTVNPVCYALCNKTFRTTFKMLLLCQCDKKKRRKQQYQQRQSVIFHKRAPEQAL
Sequence of 5-hydroxytryptamine receptor 2C (Homo sapiens) (P28335 whole entry): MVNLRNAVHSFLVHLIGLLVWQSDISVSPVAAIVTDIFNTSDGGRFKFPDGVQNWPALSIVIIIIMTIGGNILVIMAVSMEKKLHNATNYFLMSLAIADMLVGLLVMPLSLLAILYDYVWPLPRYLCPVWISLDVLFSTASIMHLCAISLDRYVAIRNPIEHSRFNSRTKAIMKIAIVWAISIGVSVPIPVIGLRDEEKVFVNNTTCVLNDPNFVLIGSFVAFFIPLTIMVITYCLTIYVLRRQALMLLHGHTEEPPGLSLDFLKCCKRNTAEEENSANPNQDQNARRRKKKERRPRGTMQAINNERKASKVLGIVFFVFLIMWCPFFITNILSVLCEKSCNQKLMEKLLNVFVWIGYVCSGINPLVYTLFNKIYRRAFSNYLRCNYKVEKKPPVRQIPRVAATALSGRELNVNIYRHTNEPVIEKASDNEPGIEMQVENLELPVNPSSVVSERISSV
Sequence of 5-hydroxytryptamine receptor 7 (Homo sapiens) (P34969 whole entry): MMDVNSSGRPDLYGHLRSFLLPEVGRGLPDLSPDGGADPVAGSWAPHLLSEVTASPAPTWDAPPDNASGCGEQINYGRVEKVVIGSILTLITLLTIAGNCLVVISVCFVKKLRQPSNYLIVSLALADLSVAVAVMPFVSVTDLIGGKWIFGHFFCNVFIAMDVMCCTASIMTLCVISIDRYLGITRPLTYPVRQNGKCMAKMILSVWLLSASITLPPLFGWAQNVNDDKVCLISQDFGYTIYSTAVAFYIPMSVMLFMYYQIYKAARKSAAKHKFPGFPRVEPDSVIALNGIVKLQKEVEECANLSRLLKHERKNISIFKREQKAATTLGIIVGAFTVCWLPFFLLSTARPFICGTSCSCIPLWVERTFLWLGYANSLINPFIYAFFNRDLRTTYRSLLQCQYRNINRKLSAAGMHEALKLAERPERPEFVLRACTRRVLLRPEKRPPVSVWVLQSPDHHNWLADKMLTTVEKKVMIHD
Sequence of D(4) dopamine receptor (Homo sapiens) (P21917 whole entry): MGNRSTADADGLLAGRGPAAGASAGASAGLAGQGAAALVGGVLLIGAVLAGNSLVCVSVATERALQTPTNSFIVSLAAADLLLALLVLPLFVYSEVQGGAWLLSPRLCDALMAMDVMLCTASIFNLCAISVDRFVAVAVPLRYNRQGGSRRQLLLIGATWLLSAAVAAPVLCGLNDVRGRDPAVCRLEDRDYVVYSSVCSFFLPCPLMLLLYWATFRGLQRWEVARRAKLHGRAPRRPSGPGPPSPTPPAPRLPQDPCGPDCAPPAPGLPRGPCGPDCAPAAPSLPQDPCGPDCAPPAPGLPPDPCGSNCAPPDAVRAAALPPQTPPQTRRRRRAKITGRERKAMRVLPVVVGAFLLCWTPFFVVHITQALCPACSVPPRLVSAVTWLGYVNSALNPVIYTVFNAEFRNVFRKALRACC
Sequence of 5-hydroxytryptamine receptor 1B (Homo sapiens) (P28222 whole entry): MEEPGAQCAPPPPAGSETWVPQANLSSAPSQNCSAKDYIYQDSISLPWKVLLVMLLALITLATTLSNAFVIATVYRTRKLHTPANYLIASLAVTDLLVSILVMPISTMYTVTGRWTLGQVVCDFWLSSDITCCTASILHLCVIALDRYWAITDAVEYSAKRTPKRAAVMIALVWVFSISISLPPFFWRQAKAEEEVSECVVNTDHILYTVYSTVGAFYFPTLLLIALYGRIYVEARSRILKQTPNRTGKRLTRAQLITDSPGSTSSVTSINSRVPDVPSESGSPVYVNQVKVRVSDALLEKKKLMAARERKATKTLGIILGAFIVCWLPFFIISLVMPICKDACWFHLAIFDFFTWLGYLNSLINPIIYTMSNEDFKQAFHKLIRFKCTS
Sequence of Glycogen synthase kinase-3 beta (Homo sapiens) (P49841 whole entry, looked up): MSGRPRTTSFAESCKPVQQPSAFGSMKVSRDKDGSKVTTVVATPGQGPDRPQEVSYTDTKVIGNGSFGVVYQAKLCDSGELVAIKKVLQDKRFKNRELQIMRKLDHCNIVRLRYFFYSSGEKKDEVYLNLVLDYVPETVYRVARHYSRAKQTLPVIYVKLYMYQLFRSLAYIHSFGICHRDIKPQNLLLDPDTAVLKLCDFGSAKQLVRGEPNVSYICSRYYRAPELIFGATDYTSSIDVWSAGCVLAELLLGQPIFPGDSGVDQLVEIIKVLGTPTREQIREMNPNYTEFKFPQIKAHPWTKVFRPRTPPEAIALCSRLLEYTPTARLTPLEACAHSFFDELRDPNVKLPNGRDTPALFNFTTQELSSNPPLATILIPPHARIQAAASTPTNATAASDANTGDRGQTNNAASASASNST

One may read the IC50 as the concentration needed to halve the response being measured. By inhibition is commonly meant the relative decrease from the control value, in per cent. As to `CNC(=O)COc1cc2cc(Nc3nc(N4CCC(C(=O)N(C)C)CC4)ncc3Cl)cc(OC)c2n(C)c1=O`, the IC50 in [1] is 40 nM (active). The residual activity in [2] was 124%; in experiment [3], 86%; in experiment [4], 100%; in experiment [5], 88%; in [6] it was 90%; in experiment [7], 97%. The residual activity in experiment [8] is 101%; in experiment [9], 112%; in [10] it was 96%; in experiment [11], 90%. In addition, the inhibition was 13.2% in experiment [12]; -2.05% in experiment [13]; 18.2% in experiment [14]; 17.7% in experiment [15]; 14.1% in experiment [16]; 12.2% in [17]. Further, the inhibition in experiment [18] is -1.33%; in experiment [19], 65.8%.
